Read-outs that look alike come from different tables or passages of the source. Where a SMILES comes first, the peptide text is derived from it. [ ]: non-standard residue; d: D form. Aib = CC(C)(N)C(=O)O
Tests used:
[1] = system: PLP-induced relapsing-remitting experimental autoimmune encephalomyelitis (EAE) model; test: PLP-induced relapsing-remitting EAE model; assay type: in vivo; set-up: CSmax during relapse (mean ± SEM) / Area under curve (mean ± SEM): scale not given here; conditions: 4 mg/kg s.c.; for Area under curve (mean ± SEM): clinical score vs days post-inoculation, out to 60 days; for CSmax during relapse (mean ± SEM): maximal clinical score during relapse; for Relapse Rate: number of animals experiencing a relapse
Procedure: To further compare the activity of the various ApoE analogs, the efficacy of the analogs was assessed in a PLP-induced relapsing-remitting experimental autoimmune encephalomyelitis (EAE) model. […] The second dose was administered the next day followed by three times a week (M, W, F). Relapse rate represents the number of animals experiencing a relapse, while the CSmax indicates the maximal clinical score during relapse. Area under curve represents the area under the curve in a plot of clinical score vs. days post-inoculation (out to 60 days). […] The improvement in relapse rate and clinical score in the EAE model by ApoE analog treatment may be due, in part, to the remyelination-promoting effect of the ApoE analogs.

Maximum tolerated dose = assay type: in vivo; conditions: for MTD: in vivo
Text: To fully evaluate the use of ApoE analogs as therapeutic compounds, the margin of safety should also be determined. Towards that end, we determined the maximum tolerated dose of COG 112, COG 248, and COG 345 when administered by intravenous and subcutaneous injection.

[2] = system: animal model of human diseases; test: Minimum effective dose in animal models; assay type: in vivo
cerebellar slices = test: Lysolecithin-induced demyelination in organotypic cerebellar slice culture; assay type: cell-based, rat
Procedure: FIG. 7. COG 112 promotes remyelination in a lysolecithin-induced demyelination model in cerebellum slice culture. Cerebellum slices from postnatal day 10 rat pups were cultured for 7 days. Lysolecithin was added to a final concentration of 0.5 mg/ml and then removed after incubation overnight (15˜17 hr). 1 μM COG 112 was added to the slice and cultured for 5 days. The cerebellar slices were either immunohistologically stained with MBP; or collected and lysed for western blotting with myelin marker MBP. (A) naïve slice; (B) 2 days after lysolecithin treatment; (C) day 7 after lysolecithin treatment; (D) day 7 after lysolecithin treatment with COG 112 added on day 3; (E) Western blot of cerebellar lysates probed for MBP; (F) Densitometry analysis of blots probed for MBP. The density of each MBP band was normalized to density of β-actin band. One-way ANOVA was used for statistical analysis. n=4
FIG. 8. COG 112 prevents lysolecithin-induced cell death of oligodendrocytes in cerebellum slice culture. Cerebellum slices from postnatal day 10 rat pups were cultured for 7 days. Lysolecithin was added to a final concentration of 0.5 mg/ml with and without COG 112 (1 μM). After incubation overnight (16 hr), medium was replaced with fresh lysolecithin-free medium, but still containing COG 112 for the COG 112 treatment group. After two days, the cerebellar slices were collected and lysed for western blotting with myelin marker MBP (left panel) and oligodendrocyte marker CNPase (right panel). The density of each MBP or CNPase band was normalized to the density of the β-actin band. One-way ANOVA was used for statistical analysis. n=4, * p<0.01.
FIG. 19. COG 345 promotes remyelination in lysolecithin-induced demyelination model of cerebellum slices. Significant demyelination was induced by lysolecithin (0.5 mg/ml) in cerebellar slices. COG 112 or COG 345 (1 μM) was added on day 3 when full demyelination was achieved. 4 days later, the slices were fixed and double stained with myelin marker MBP (green) and Purkinje cell marker calbindin (red). (A) Untreated-slices; (B) lysolecithin-treated slices; (C) COG 112-treated slices after lysolecithin exposure; (D) COG 345-treated slices after lysolecithin exposure. E-F. ApoE analogs protect OPCs from LPS-induced cell death in OPC/microglia mixed culture. OPCs and microglia derived from brain culture of P2 rat pups were plated in 96-well plates in 1:1 ratio. LPS (10 ng/ml) together with 1 μM of the indicated ApoE analogs was added to the cultures. After 24 hours, OPC cell death was quantified by LDH assay (E) and MTT assay (F). Statistical analysis was conducted by one-way ANOVA followed by Dunnett comparison vs. LPS group. * P<0.01, ** P<0.001, n=3.
The effect of COG peptides (i.e. ApoE analogs) on remyelination in a second model of demyelination was examined. For this series of experiments, a lysolecithin-induced in vitro demyelination model in an organotypic cerebellar slice culture was used. Parasagittal slices of postnatal Day 10 (P10) rat cerebellum were cut at 400 μm using a Tissue Slicer (SD Instruments, Grants Pass, Oreg.). After culture in conditioned medium for 7 days in vitro (DIV), fresh medium with lysolecithin (0.5 mg/ml) was added to the slice and incubated overnight (15-17 hours) at 37° C. The lysolecithin-containing medium was then replaced with fresh medium without lysolecithin. On day 3, COG 112 (1 μM) was added to the slice with fresh medium. After incubation for 5 days, the cerebellar slices were either immunohistologically stained for myelin basic protein (MBP), a myelin marker, (FIG. 7A-D) or lysed for western blotting and subsequent probing for MBP (FIGS. 7E and F). […] Similar results were obtained from the Western blot analysis of lysates of the cerebellar slices (FIGS. 7E and F). […] In addition, the blots of cerebellar slice lysate were also probed for oligodendrocyte (OL) marker 2′,3′-Cyclic Nucleotide 3′-Phosphodiesterase (CNPase). […]

[3] = sc, subcutaneous injection, read-out: Maximum Tolerated Dose Subcutaneous
[4] = intravenous injection, read-out: Maximum Tolerated Dose Intravenous
[5] = 1 μM added on day 3 after lysolecithin, 5 days
[6] = 1 μM added together with lysolecithin, 2 days after

Compound	Area under curve (mean ± SEM) [1]	CSmax during relapse (mean ± SEM) [1]	Relapse Rate [1]	MTD (Maximum tolerated dose; [3])	MTD (Maximum tolerated dose; [4])	Minimum Effective Dose (model) ([2]; models: CIA, EAE)	myelination (MBP/calbindin double staining) (cerebellar slices; 1 μM added three days after lysolecithin, 4 days)	improvement in relapse rate and maximum clinical score during relapse [1]	safety profile by intravenous injection (Maximum tolerated dose; compared to the other analogs on a molar basis)	Minimum Effective Dose (model) ([2]; model: EAE)	MBP levels (Western blot) (cerebellar slices; [5])	level of MBP protein (immunostaining) (cerebellar slices; [5])	prevention of lysolecithin-induced demyelination (MBP Western blot) (cerebellar slices; [6])	prevention of oligodendrocyte cell death (CNPase Western blot) (cerebellar slices; [6])	level of CNPase (Western blot) (cerebellar slices; 1 μM post-treatment, data not shown)	Minimum Effective Dose (model) ([2]; models: EAE, TBI)
CC(=O)N[C@@H](CC(C)C)C(=O)N[C@@H](CCCNC(=N)N)C(=O)N[C@H](C(=O)N[C@@H](CCCNC(=N)N)C(=O)N[C@@H](CC(C)C)C(=O)N[C@@H](C)C(=O)N[C@@H](CO)C(=O)N[C@@H](Cc1c[nH]cn1)C(=O)N[C@@H](CC(C)C)C(=O)N[C@@H](CCCNC(=N)N)C(=O)N[C@@H](CCCCN)C(=O)N[C@@H](CC(C)C)C(=O)N[C@@H](CCCNC(=N)N)C(=O)N[C@@H](CCCCN)C(=O)N[C@@H](CCCNC(=N)N)C(=O)N[C@@H](CC(C)C)C(=O)N[C@@H](CC(C)C)C(N)=O)C(C)C [COG 133]	25.3 ± 8.3	3.2 ± 0.7	7/14	> 100 mg/kg	16 mg/kg	1 mg/kg (CIA, EAE)										
CC(=O)NC(=N)NCCC[C@H](NC(=O)[C@H](CCCCN)NC(=O)[C@H](CCCNC(=N)N)NC(=O)[C@H](CC(C)C)NC(=O)[C@H](CCCCN)NC(=O)[C@H](CCCNC(=N)N)NC(=O)[C@H](CC(C)C)NC(=O)C(C)(C)NC(=O)[C@H](CO)NC(=O)[C@H](C)NC(=O)[C@H](CC(C)C)NC(=O)[C@H](CCCNC(=N)N)NC(=O)[C@@H](NC(=O)[C@H](CCCNC(=N)N)NC(=O)[C@H](CC(C)C)NC(C)=O)C(C)C)C(=O)N[C@@H](CC(C)C)C(=O)N[C@@H](CC(C)C)C(N)=O [COG 345, acetyl-LRVRLAS-Aib-LRKLRK(acetyl-Arg)LL-amide] (Ac-LRVRLAS[Aib]LRKLRKR(Ac)LL-NH2)	15.5 ± 2.5	1.4 ± 0.2	4/15	> 150 mg/kg	20 to 25 mg/kg		dramatically restored myelination	significant improvement	superior safety profile	1 mg/kg (EAE)						
Ac-RQIKIWFQNRRMKWKKCLRVRLASHLRKLRKRLL-NH2 [COG 112]	16.7 ± 3.6	2.4 ± 0.8	5/14	> 100 mg/kg	28 mg/kg						increased MBP levels	robustly elevated	did not prevent lysolecithin-induced demyelination	did prevent oligodendrocyte cell death	significantly increased	1 mg/kg (EAE, TBI)
